T1: DREAM(Δ64) (Mus musculus, UniProt Q9QXT8)
T1 sequence (Q9QXT8 65-256): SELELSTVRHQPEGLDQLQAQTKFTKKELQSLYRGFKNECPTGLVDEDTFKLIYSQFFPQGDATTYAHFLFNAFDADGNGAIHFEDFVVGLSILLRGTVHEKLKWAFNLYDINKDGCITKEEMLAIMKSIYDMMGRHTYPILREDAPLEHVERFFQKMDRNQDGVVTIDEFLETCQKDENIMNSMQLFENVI

B1: DREAM(Δ64), mouse DREAM (downstream regulatory element antagonist modulator) construct lacking residues 1–64 (domain or fragment, UniProt Q9QXT8 65-256, looked up)
chain: T1 sequence (Q9QXT8 65-256)

Assays:
[1] = target: T1, DREAM(Δ64); assay: Tb3+ luminescence decay titration; assay type: binding
[2] = target: the molecule itself; assay: fluorescence anisotropy decay

Molecule | Kd [1] | stoichiometry N [2]
O=C(Nc1cc(C(F)(F)F)cc(C(F)(F)F)c1)Nc1c(Br)cc(Br)cc1-c1nn[nH]n1 [NS5806, 1-[2,4-dibromo-6-(1H-tetrazol-5-yl)-phenyl]-3-(3,5-bis-trifluoromethyl-phenyl)urea] | ~37 µM | –
B1 | – | 2

From PMC4867112 (Biochemistry, 2016)
